We go through two molecules from patent publication US20090105197A1 (priority 2001, published 2009).

Where “and” joins values, the source holds several entries; their conditions need not be identical. Equal entries are not always repeated.

For orientation: inhibition means how much of the control response was suppressed.

Test [1] relates to acetic acid-induced writhing in mice. The test can be described thus: animal or person. The format is in vivo, Kunming mice. Conditions: for ID95 (95% inhibition dose) of aspirin: i.m.
The subject of test [2] is heat-induced tail flick in mice. To be noted: mouse, in vivo.
Setting [3] is: Mus musculus, im, read-out: inhibition Rate (%).
Where [4] appears, read: combined with small doses of TTX (1/25 and 1/50 LD50) versus aspirin alone.

Consider `NC1=N[C@H](O)[C@H]2[C@H]3O[C@]4(O)O[C@@H]([C@@H](O)[C@@]2(N1)[C@@H]4O)[C@]3(O)CO` [TTX, Tetrodotoxin], for which the “Average Writhing movements” value in test [1] (mouse, in vivo, 3 mg/kg) worked out at 28.2 ± 9.65; in test [1] (mouse, in vivo, ip, 3 mg/kg) it was 23.2 ± 11.7. Further, in test [2], the “analgesic effect with escalating doses” value is “did not increase markedly with escalating doses”.
As to `CC(=O)Oc1ccccc1C(=O)O` [ASP, Aspirin], the “Average Writhing movements” value came out at 25.1 ± 14.5 in test [1] (ASP alone 25 mg/kg i.m.); 19.3 ± 13.8 in test [1] (ASP alone 50 mg/kg i.m.); 12.0 ± 9.2 in test [1] (ASP alone 100 mg/kg i.m.); 5.2 ± 5.7 in test [1] (ASP alone 150 mg/kg i.m.); 2.7 ± 1.9 in test [1] (ASP alone 200 mg/kg i.m.). In addition, the inhibition at 25 mg/kg in test [1] (setting [3]) stood at 35.6%. The inhibition at 50 mg/kg in test [1] (setting [3]) came to 50.6%. Moreover, the inhibition at 100 mg/kg in test [1] (setting [3]) was found to be 69.3%. Moreover, the inhibition at 150 mg/kg in test [1] (setting [3]) amounted to 86.6%. Moreover, the inhibition at 200 mg/kg in test [1] (setting [3]) was found to be 93.2%. Besides, the “ID95 (95% inhibition dose) of aspirin” value in test [1] (aspirin alone) is 361.8 mg/kg; in test [1] (aspirin alone, listed as aspirin), 361.8 mg/kg and 361.77 mg/kg; in test [1] (aspirin combined with TTX 0.39 μg/kg (1/50 LD50)), 154.3 mg/kg and 154.33 mg/kg; in test [1] (aspirin combined with TTX 0.79 μg/kg (1/25 LD50)), 94.5 mg/kg and 94.47 mg/kg. In addition, the “reduction of ID50 of aspirin” value in test [1] (setting [4]) is on record as “exceeded two folds”. In test [1] (setting [4]), the “reduction of ID95 of aspirin” value is given as “exceeded two folds”.
